Test results reported in the supplement of paper PMC10307832.

Tests used:
Experiment in all cases: relative viability (nuclei count vs DMSO), 5 days (fraction); higher = more cells survive
NCI-H661 = test system: NCI-H661
How it was run: (§1)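 Values are medians from duplicate plates. Each reflects relative viability, defined as the nuclei count of treated wells over that of vehicle wells. Lung cancer cell lines in 1536-well plates were pin-tool dosed one day after seeding with one drug alone or with a fixed anchor-drug dose plus five library-drug doses (not always all listed) in √10 steps, then fixed, stained and imaged at 4× after 5 days.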

SW 1573 = test system: SW 1573
How it was run: as §1

NCI-H2009 = test system: NCI-H2009
How it was run: as §1

NCI-H2126 = test system: NCI-H2126
How it was run: as §1

NCI-H647 = test system: NCI-H647
How it was run: as §1

H3255 = test system: H3255
How it was run: as §1

EMC-BAC-2 = test system: EMC-BAC-2
How it was run: as §1

LXF-289 = test system: LXF-289
How it was run: as §1

PC-14 = test system: PC-14
How it was run: as §1

EPLC-272H = test system: EPLC-272H
How it was run: as §1

HOP-62 = test system: HOP-62
How it was run: as §1

LCLC-97TM1 = test system: LCLC-97TM1
How it was run: as §1

NCI-H1993 = test system: NCI-H1993
How it was run: as §1

NCI-H322M = test system: NCI-H322M
How it was run: as §1

NCI-H1915 = test system: NCI-H1915
How it was run: as §1

SK-LU-1 = test system: SK-LU-1
How it was run: as §1

NCI-H727 = test system: NCI-H727
How it was run: as §1

NCI-H2347 = test system: NCI-H2347
How it was run: as §1

NCI-H2085 = test system: NCI-H2085
How it was run: as §1

NCI-H2023 = test system: NCI-H2023
How it was run: as §1

NCI-H1734 = test system: NCI-H1734
How it was run: as §1

## O=c1cc(-c2cccc3c2Sc2ccccc2S3)oc(N2CCOCC2)c1 + O=C(c1cc(Cc2n[nH]c(=O)c3ccccc23)ccc1F)N1CCN(C(=O)C2CC2)CC1 [Olaparib] (partner 8 µM)
NCI-H661; first compound 0.08 µM
  relative viability: 0.809
NCI-H661; first compound 0.253 µM
  relative viability: 0.808
NCI-H661; first compound 0.8 µM
  relative viability: 0.76
NCI-H661; first compound 2.53 µM
  relative viability: 0.777
NCI-H661; first compound 8 µM
  relative viability: 0.712
SW 1573; first compound 0.08 µM
  relative viability: 0.513
SW 1573; first compound 0.253 µM
  relative viability: 0.574
SW 1573; first compound 0.8 µM
  relative viability: 0.613
SW 1573; first compound 2.53 µM
  relative viability: 0.487
SW 1573; first compound 8 µM
  relative viability: 0.44
NCI-H2009; first compound 0.08 µM
  relative viability: 0.746
NCI-H2009; first compound 0.253 µM
  relative viability: 0.731
NCI-H2009; first compound 0.8 µM
  relative viability: 0.798
NCI-H2009; first compound 2.53 µM
  relative viability: 0.662
NCI-H2009; first compound 8 µM
  relative viability: 0.765
NCI-H2126; first compound 0.08 µM
  relative viability: 1.06
NCI-H2126; first compound 0.253 µM
  relative viability: 0.991
NCI-H2126; first compound 0.8 µM
  relative viability: 1.01
NCI-H2126; first compound 2.53 µM
  relative viability: 0.9
NCI-H2126; first compound 8 µM
  relative viability: 0.91
NCI-H647; first compound 0.08 µM
  relative viability: 0.642
NCI-H647; first compound 0.253 µM
  relative viability: 0.851
NCI-H647; first compound 0.8 µM
  relative viability: 0.596
NCI-H647; first compound 2.53 µM
  relative viability: 0.452
NCI-H647; first compound 8 µM
  relative viability: 0.272
H3255; first compound 0.08 µM
  relative viability: 0.592
H3255; first compound 0.253 µM
  relative viability: 0.586
H3255; first compound 0.8 µM
  relative viability: 0.571
H3255; first compound 2.53 µM
  relative viability: 0.525
H3255; first compound 8 µM
  relative viability: 0.594
EMC-BAC-2; first compound 0.08 µM
  relative viability: 0.523
EMC-BAC-2; first compound 0.253 µM
  relative viability: 0.568
EMC-BAC-2; first compound 0.8 µM
  relative viability: 0.518
EMC-BAC-2; first compound 2.53 µM
  relative viability: 0.571
EMC-BAC-2; first compound 8 µM
  relative viability: 0.514
LXF-289; first compound 0.08 µM
  relative viability: 1.17
LXF-289; first compound 0.253 µM
  relative viability: 1.36
LXF-289; first compound 0.8 µM
  relative viability: 1.18
LXF-289; first compound 2.53 µM
  relative viability: 1.11
LXF-289; first compound 8 µM
  relative viability: 1.21
PC-14; first compound 0.08 µM
  relative viability: 0.232
PC-14; first compound 0.253 µM
  relative viability: 0.214
PC-14; first compound 0.8 µM
  relative viability: 0.237
PC-14; first compound 2.53 µM
  relative viability: 0.169
PC-14; first compound 8 µM
  relative viability: 0.165
EPLC-272H; first compound 0.08 µM
  relative viability: 0.986
EPLC-272H; first compound 0.253 µM
  relative viability: 0.896
EPLC-272H; first compound 0.8 µM
  relative viability: 0.998
EPLC-272H; first compound 2.53 µM
  relative viability: 0.774
EPLC-272H; first compound 8 µM
  relative viability: 0.483
HOP-62; first compound 0.08 µM
  relative viability: 0.374
HOP-62; first compound 0.253 µM
  relative viability: 0.52
HOP-62; first compound 0.8 µM
  relative viability: 0.543
HOP-62; first compound 2.53 µM
  relative viability: 0.49
HOP-62; first compound 8 µM
  relative viability: 0.576
LCLC-97TM1; first compound 0.08 µM
  relative viability: 0.404
LCLC-97TM1; first compound 0.253 µM
  relative viability: 0.555
LCLC-97TM1; first compound 0.8 µM
  relative viability: 0.463
LCLC-97TM1; first compound 2.53 µM
  relative viability: 0.31
LCLC-97TM1; first compound 8 µM
  relative viability: 0.378
NCI-H1993; first compound 0.08 µM
  relative viability: 1.05
NCI-H1993; first compound 0.253 µM
  relative viability: 1.1
NCI-H1993; first compound 0.8 µM
  relative viability: 0.986
NCI-H1993; first compound 2.53 µM
  relative viability: 0.965
NCI-H1993; first compound 8 µM
  relative viability: 1.12
NCI-H322M; first compound 0.08 µM
  relative viability: 0.523
NCI-H322M; first compound 0.253 µM
  relative viability: 0.751
NCI-H322M; first compound 0.8 µM
  relative viability: 0.746
NCI-H322M; first compound 2.53 µM
  relative viability: 0.811
NCI-H322M; first compound 8 µM
  relative viability: 0.729
NCI-H1915; first compound 0.08 µM
  relative viability: 0.425
NCI-H1915; first compound 0.253 µM
  relative viability: 0.266
NCI-H1915; first compound 0.8 µM
  relative viability: 0.296
NCI-H1915; first compound 2.53 µM
  relative viability: 0.305
NCI-H1915; first compound 8 µM
  relative viability: 0.226
SK-LU-1; first compound 0.08 µM
  relative viability: 0.582
SK-LU-1; first compound 0.253 µM
  relative viability: 0.713
SK-LU-1; first compound 0.8 µM
  relative viability: 0.524
SK-LU-1; first compound 2.53 µM
  relative viability: 0.503
SK-LU-1; first compound 8 µM
  relative viability: 0.463
NCI-H727; first compound 0.08 µM
  relative viability: 0.64
NCI-H727; first compound 0.253 µM
  relative viability: 0.679
NCI-H727; first compound 2.53 µM
  relative viability: 0.615
NCI-H727; first compound 8 µM
  relative viability: 0.68
NCI-H2347; first compound 0.08 µM
  relative viability: 0.53
NCI-H2347; first compound 0.253 µM
  relative viability: 0.561
NCI-H2347; first compound 0.8 µM
  relative viability: 0.591
NCI-H2347; first compound 2.53 µM
  relative viability: 0.585
NCI-H2347; first compound 8 µM
  relative viability: 0.638
NCI-H2085; first compound 0.08 µM
  relative viability: 0.771
NCI-H2085; first compound 0.253 µM
  relative viability: 0.846
NCI-H2085; first compound 0.8 µM
  relative viability: 0.857
NCI-H2085; first compound 2.53 µM
  relative viability: 0.762
NCI-H2085; first compound 8 µM
  relative viability: 0.654
NCI-H2023; first compound 0.08 µM
  relative viability: 0.445
NCI-H2023; first compound 0.253 µM
  relative viability: 0.513
NCI-H2023; first compound 0.8 µM
  relative viability: 0.435
NCI-H2023; first compound 2.53 µM
  relative viability: 0.345
NCI-H2023; first compound 8 µM
  relative viability: 0.348
NCI-H1734; first compound 0.08 µM
  relative viability: 0.628
NCI-H1734; first compound 0.253 µM
  relative viability: 0.659
NCI-H1734; first compound 0.8 µM
  relative viability: 0.713
NCI-H1734; first compound 8 µM
  relative viability: 0.647
